Entries after “also recorded” stand apart in the source; their conditions may differ.
Tests used:
Assay type in all cases: in vivo
mouse maxilla = test: intra-oral injection of AF647-ZOL into maxilla of mice pre-injected IV with FAM-ZOL, fluorescent biophotonics
Experimental: FIG. 10 are representative images of mice maxilla. AF647-ZOL was orally injected into maxilla of mice pre-injected with 5-FAM-ZOL.
The mouse intra-oral injection protocol was established by using a Hamilton syringe with a 33-gauge needle. Under a surgical microscope, 2 μl solution was injected to the palatal gingiva of left first molar of mouse maxilla. After slow injection, the needle was left in the tissue for 3 minutes and then gently removed.
Using this method, 2 μl of 0 μM, 0.5 μM or 5.0 μM AF647-ZOL was injected to mouse maxillary oral mucosa to mice 6 days after retro-orbital IV injection of 100 μl of 50 μM FAM-ZOL. Mouse tissues were harvested 1 day after oral injection and maxillary bones were subjected to standardized fluorescent biophotonics image obtained using an excitation wavelength of 460 nm and a 515 nm filter (LAS3000, FUJIFILM Corp).

[1] = system: ZOL-induced mouse BRONJ model; test: ZOL-induced mouse BRONJ/ONJ model (ZOL IV injection followed by maxillary first molar extraction)
Experimental: AF647-ZOL was applied by intra-oral injection or IV injection 1 day prior to tooth extraction. FIG. 16B are images of mouse maxilla and the oral mucosa inflammation and swelling (white dotted lines, left and right panels) with various degrees of jawbone exposure (arrow) at the tooth extraction site of ZOL-treated mice (BRONJ control: n−4). […]
Panel A is a diagram of the experimental time line. Mice treated by IV injection of ZOL (500 μg/kg) received an intra-oral injection of AF647-ZOL, MHDP or ETI (etidronate) one day prior to maxillary 1″ molar extraction. The development of ONJ was evaluated 14 days after tooth extraction.
The C57BL/6J (B6) mice model of ONJ is used. The consistent tissue source in this study is mouse maxillary bone with or without tooth extraction, as well as femurs, mandibles and L4/L5 lumber bones. Tooth extraction animal models for studying wound healing in mice have been well established in our and other laboratories. Systemic bisphosphonate treatment is accomplished by IV injection and the proposed local application of FL-BP is accomplished by intraoral injection to gingival/palatal tissue of mouse maxilla. Mice are subjected to maxillary molar extraction. After anesthesia and vital signs checked, the animal is placed on a bed supporting the isoflurane tubing while keeping the mouth opening. Ophthalmic ointment (bland, e.g., Lacrilube) is applied. The maxillary molar area is wiped with 0.12% Chlorhexidine gluconate solution (Peridex, oral rinse). An autoclaved dental explorer is used as an exodontia elevator after careful reflection of the cervical mucosa to minimize post-extraction discomfort. An autoclaved cotton swab is placed on the extraction socket until the initial blood coagulation is established. Maxillary 1st molar is then extracted unilaterally from so that the remaining untreated side can be utilized for chewing. In our previous experiments, the entire procedure takes about 5-15 minutes. […]
In a preliminary study female B6 mice were injected 500 μg/Kg ZOL (equivalent to 200 μl of 350 μM ZOL) via tail vein and one week later, maxillary left first molar was extracted. […]
Therefore, as schematically shown in FIG. 19B mouse maxillae were treated with ZOL and then either 2 μg of MHDP was orally injected to the site of the molar to be extracted or 100 μg of MHDP was IV injected and the sites of molar extraction of treated mouse maxilla were compared to controls.

mouse femurs = test: AF647-ZOL signal in distant bone (femurs) in the BRONJ mouse model
Experimental: AF647-ZOL was applied by intra-oral injection or IV injection 1 day prior to tooth extraction. FIG. 16B are images of mouse maxilla and the oral mucosa inflammation and swelling (white dotted lines, left and right panels) with various degrees of jawbone exposure (arrow) at the tooth extraction site of ZOL-treated mice (BRONJ control: n−4).
Mice received a bolus IV injection of ZOL (440 μg/Kg; 294 μM×100 μL=8.0 μg/animal) from retro-orbital venous plexus. […] The AF647-ZOL signal in distant bone was assessed in femurs.

mouse cranial bone = test: cranial bone displacement: AF647-ZOL pre-adsorbed via IV, FAM-ZOL sub-periosteal injection; details: IV injection; cryo-cross sections
Experimental: FIG. 12A to FIG. 12C show the displacement and replacement of AF647-ZOL and 5-FAM-ZOL. FIG. 12A are fluorescent images of cranial bone. AF647-ZOL (50 μM) was pre-adsorbed on cranial bone via IV injection. 5-FAM-ZOL at the indicated doses was directly injected to the sub-periosteal space. […] The first bars of each set are for AF647-ZOL and the second bars of each set are for 5-FAM-ZOL. *, P<0.05 vs Veh by Dunnett's test.
Mice were pre-treated by 100 μl of 50 μM AF647-ZOL retro-orbital IV injection. Six days later, mice received sub-periosteal injection to cranial bone with 10 μl of 0 μM, 1 μM, 10 μM, or 50 μM FAM-ZOL. The cranial bone was harvested and soft tissues were removed. The fluorescent signals of AF647 and FAM were measured by standardized fluorescent biophotonics. The cranial bones were then prepared for cryosection. Cross-sections were made by the tape method and evaluated by confocal laser scanning microscopy.

[2] = AF647-ZOL IV 500 μM×100 μL 1 day before extraction, 2 weeks after extraction

Structure (SMILES): CC1(C)C(C=CC=CC=C2N(CCCS(=O)(=O)O)c3ccc(S(=O)(=O)O)cc3C2(C)CCCCCC(=O)NCC(O)C[n+]2ccn(CC(O)(P(=O)(O)O)P(=O)(O)O)c2)=[N+](CCCS(=O)(=O)O)c2ccc(S(=O)(=O)O)cc21 (centres unmarked) [AF647-ZOL]
- AF647 signal at and around the injection site on the palatal bone (mouse maxilla; 2 μl of 0, 0.5 or 5.0 μM intra-oral, harvested 1 day after): dose dependent adsorption
- displacement of pre-adsorbed FAM-ZOL in maxilla (mouse maxilla; FAM-ZOL 100 μl of 50 μM IV 6 days before AF647-ZOL intra-oral injection, qualitative): pre-adsorbed FAM-ZOL was removed; also recorded: Reduction of FAM-ZOL signal was observed qualitatively
- systemic distribution to the distant skeletal system (femur) (mouse maxilla; intra-oral injection): did not result in systemic distribution to the distant skeletal system
- histology of maxilla at the tooth extraction site: ONJ-like lesion ([1]; 2 weeks after extraction, one time oral injection in ZOL-mice, FIG. 20): did not develop an ONJ-like lesion
- BRONJ-like lesions, jawbone exposure [1, 2]: jawbone exposure was much attenuated; also recorded: attenuated BRONJ-like lesions
- oral mucosa inflammation/swelling [1, 2]: some mice which received an AF647-ZOL IV injection showed signs of oral mucosa inflammation/swelling
- prevention of BRONJ, tooth extraction wound healing ([1]; AF647-ZOL intra-oral 250 μM×2 μL 1 day before extraction, 2 weeks after extraction): complete prevention of BRONJ; also recorded: excellent tooth extraction wound healing without chronic inflammation or swelling
- development of ONJ-like lesions at the tooth extraction sites ([1]; ZOL 500 μg/kg IV, intra-oral injection one day prior to extraction, 14 days after extraction, FIG. 21): appeared to be prevented
- AF647-ZOL signal in femurs (mouse femurs; IV injection 500 μM×100 μL): clear AF647-ZOL signal; also recorded: clearly observed
- AF647-ZOL signal in femurs (mouse femurs; intra-oral injection 250 μM×2 μL): not and did not result in a detectable fluorescent signal
- location of AF647-ZOL labeling in cranial bone (mouse cranial bone): external and internal bone surfaces, as well as trabecular surface

Source: patent US11400104B2, “Skeletal removal of bisphosphonates” (The Regents of the University of California, priority 2016, dated 2022)
